Measured values: ChEMBL document CHEMBL1143632, “Ligand-based prediction of active conformation by 3D-QSAR flexibility descriptors and their application in 3+3D-QSAR models” (J Med Chem, 2005)
Where a SMILES comes first, the peptide text is derived from it. [ ]: non-standard residue; d: D form. Dmt = Cc1cc(O)cc(C)c1C[C@H](N)C(=O)O

These molecules were tested against Mu-type opioid receptor (Mus musculus, UniProt P42866) (assay: Inhibition of DAMGO (Tyr-[D-Ala]-Gly-[NMe-Phe]-Gly-ol) binding to mouse brain mu opioid receptor).
Chain of Mu-type opioid receptor (Mus musculus, UniProt P42866) (P42866 whole entry): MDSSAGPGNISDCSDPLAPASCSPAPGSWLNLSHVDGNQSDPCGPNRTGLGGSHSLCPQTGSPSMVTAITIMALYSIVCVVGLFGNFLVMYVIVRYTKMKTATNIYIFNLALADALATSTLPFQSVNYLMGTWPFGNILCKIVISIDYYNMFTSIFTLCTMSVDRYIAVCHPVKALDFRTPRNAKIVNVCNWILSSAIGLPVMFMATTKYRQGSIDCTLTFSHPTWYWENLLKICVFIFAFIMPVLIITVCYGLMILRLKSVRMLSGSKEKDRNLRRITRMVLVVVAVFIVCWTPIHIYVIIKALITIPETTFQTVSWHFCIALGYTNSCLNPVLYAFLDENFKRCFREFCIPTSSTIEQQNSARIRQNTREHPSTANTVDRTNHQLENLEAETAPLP

| Structure (SMILES) | Ki |
| --- | --- |
| NC(=O)[C@H](Cc1ccccc1)NC(=O)[C@H](Cc1ccccc1)NC(=O)[C@H]1Cc2ccccc2[C@H]1NC(=O)[C@@H](N)Cc1ccc(O)cc1 | 241 nM |
| NC(=O)[C@H](Cc1ccccc1)NC(=O)[C@@H]1Cc2ccccc2[C@@H]1NC(=O)[C@@H]1CCCN1C(=O)[C@@H](N)Cc1ccc(O)cc1 | 298 nM |
| NC(=O)[C@H](Cc1ccccc1)NC(=O)[C@H]1Cc2ccccc2[C@H]1NC(=O)[C@@H]1CCCN1C(=O)[C@@H](N)Cc1ccc(O)cc1 | 128 nM |
| NC(=O)[C@H](Cc1ccccc1)NC(=O)[C@H](Cc1ccccc1)NC(=O)[C@@H]1Cc2ccccc2[C@@H]1NC(=O)[C@@H](N)Cc1ccc(O)cc1 | 1000 nM |

Species: Rattus norvegicus
Test: Antinidatory effect was determined in rat
Assay type: functional
Set-up: unit not given here

| Structure (SMILES) | Log ED50 |
| --- | --- |
| O=C(O)CCC/C=C\C[C@@H]1[C@@H](/C=C/[C@@H](O)c2ccc(C(F)(F)F)cc2)[C@H](O)C[C@@H]1O | 1.699 |
| CCCOCCC[C@H](O)/C=C/[C@@H]1[C@@H](C/C=C\CCCC(=O)O)[C@@H](O)C[C@H]1O | -0.602 |
| CCOCCCC[C@H](O)/C=C/[C@@H]1[C@@H](C/C=C\CCCC(=O)O)[C@@H](O)C[C@H]1O | 0.699 |
| O=C(O)/C=C/C=C/CC[C@@H]1[C@@H](/C=C/[C@@H](O)COc2cccc(Cl)c2)[C@H](O)C[C@@H]1O | 0.777 |
| O=C(O)CCC/C=C\C[C@@H]1[C@@H](/C=C/[C@@H](O)C#Cc2ccccc2)[C@H](O)C[C@@H]1O | 1.699 |
| O=C(O)C/C=C/C=C\C[C@@H]1[C@@H](/C=C/[C@@H](O)COc2cccc(Cl)c2)[C@H](O)C[C@@H]1O | 2.886 |
| COCCCCC[C@H](O)/C=C/[C@@H]1[C@@H](C/C=C\CCCC(=O)O)[C@@H](O)C[C@H]1O | 0.398 |
| O=C(O)CC/C=C\CC[C@@H]1[C@@H](/C=C/[C@@H](O)CCc2ccccc2)[C@H](O)C[C@@H]1O | 2.301 |
| O=C(O)CCC/C=C\C[C@@H]1[C@@H](/C=C/[C@@H](O)/C=C/c2ccccc2)[C@H](O)C[C@@H]1O | -0.602 |
| CCCCOCC[C@H](O)/C=C/[C@@H]1[C@@H](C/C=C\CCCC(=O)O)[C@@H](O)C[C@H]1O | -0.301 |
| O=C(O)CCC/C=C/C[C@@H]1[C@@H](/C=C/[C@@H](O)C2CC2c2ccccc2)[C@H](O)C[C@@H]1O (stereo not given in full) | 1.398 |
| O=C(O)CCC/C=C\C[C@@H]1[C@@H](/C=C/[C@@H](O)COc2ccc(F)cc2)[C@H](O)C[C@@H]1O | 2.301 |
| CCCCCCOC[C@H](O)/C=C/[C@@H]1[C@@H](C/C=C\CCCC(=O)O)[C@@H](O)C[C@H]1O | 0.699 |
| CCCCCOC[C@H](O)/C=C/[C@@H]1[C@@H](C/C=C\CCCC(=O)O)[C@@H](O)C[C@H]1O | 1 |
| CCC(C)(C)CC[C@H](O)/C=C/[C@@H]1[C@@H](C/C=C\CCCC(=O)O)[C@@H](O)C[C@H]1O | 0.664 |
| CCCCCCC[C@H](O)/C=C/[C@@H]1[C@@H](C/C=C\CCCC(=O)O)[C@@H](O)C[C@H]1O | 0.669 |
| O=C(O)CCC/C=C\C[C@@H]1[C@@H](/C=C/[C@@H](O)C#Cc2cccs2)[C@H](O)C[C@@H]1O | 0.602 |
| O=C(O)C/C=C/C=C\C[C@@H]1[C@@H](/C=C/[C@@H](O)COc2ccccc2)[C@H](O)C[C@@H]1O | 0 |

| Structure (SMILES) | Log ED50 |
| --- | --- |
| O=C(O)/C=C/C=C/C=C/[C@@H]1[C@@H](/C=C/[C@@H](O)COc2ccccc2)[C@H](O)C[C@@H]1O | 0.699 |
| O=C(O)/C=C\CCCC[C@@H]1[C@@H](/C=C/[C@@H](O)COc2cccc(C(F)(F)F)c2)[C@H](O)C[C@@H]1O | 0.482 |
| CCCC(C)(C)C[C@H](O)/C=C/[C@@H]1[C@@H](C/C=C\CCCC(=O)O)[C@@H](O)C[C@H]1O | 0.279 |
| O=C(O)/C=C/C/C=C\C[C@@H]1[C@@H](/C=C/[C@@H](O)COc2cccc(C(F)(F)F)c2)[C@H](O)C[C@@H]1O | 2 |
| O=C(O)C/C=C/C=C/C[C@@H]1[C@@H](/C=C/[C@@H](O)COc2ccccc2)[C@H](O)C[C@@H]1O | 1.699 |
| O=C(O)/C=C/C/C=C/C[C@@H]1[C@@H](/C=C/[C@@H](O)COc2cccc(Cl)c2)[C@H](O)C[C@@H]1O | 2 |
| CCCCC(C)(C)[C@H](O)/C=C/[C@@H]1[C@@H](C/C=C\CCCC(=O)O)[C@@H](O)C[C@H]1O | 0.081 |
| CCCCOC[C@H](O)/C=C/[C@@H]1[C@@H](C/C=C\CCCC(=O)O)[C@@H](O)C[C@H]1O | 1 |
| O=C(O)/C=C/C/C=C\C[C@@H]1[C@@H](/C=C/[C@@H](O)COc2ccc(Cl)cc2)[C@H](O)C[C@@H]1O | 2 |
| COc1cccc(C#C[C@H](O)/C=C/[C@@H]2[C@@H](CCCCCCC(=O)O)[C@@H](O)C[C@H]2O)c1 | 2 |
| O=C(O)/C=C/CCCC[C@@H]1[C@@H](/C=C/[C@@H](O)COc2cccc(C(F)(F)F)c2)[C@H](O)C[C@@H]1O | 0.602 |
| O=C(O)CCC/C=C\C[C@@H]1[C@@H](/C=C/[C@@H](O)C#Cc2ccco2)[C@H](O)C[C@@H]1O | 0 |
| O=C(O)/C=C/C/C=C\C[C@@H]1[C@@H](/C=C/[C@@H](O)COc2cccc(Cl)c2)[C@H](O)C[C@@H]1O | 2.301 |
| O=C(O)/C=C/C=C/C=C/[C@@H]1[C@@H](/C=C/[C@@H](O)COc2cccc(Cl)c2)[C@H](O)C[C@@H]1O | 0.699 |
| O=C(O)CCC/C=C\C[C@@H]1[C@@H](/C=C/[C@@H](O)C#CC2CCCCC2)[C@H](O)C[C@@H]1O | 1.959 |
| O=C(O)/C=C/C/C=C\C[C@@H]1[C@@H](/C=C/[C@@H](O)COc2ccccc2)[C@H](O)C[C@@H]1O | 2.481 |
| CCCOC[C@H](O)/C=C/[C@@H]1[C@@H](C/C=C\CCCC(=O)O)[C@@H](O)C[C@H]1O | 0.398 |

These molecules were tested against T1, Mu-type opioid receptor (Rattus norvegicus, UniProt P33535) (assay: Inhibition of DAMGO (Tyr-[D-Ala]-Gly-[NMe-Phe]-Gly-ol) binding to rat brain opioid receptor).
T1 sequence (P33535 whole entry): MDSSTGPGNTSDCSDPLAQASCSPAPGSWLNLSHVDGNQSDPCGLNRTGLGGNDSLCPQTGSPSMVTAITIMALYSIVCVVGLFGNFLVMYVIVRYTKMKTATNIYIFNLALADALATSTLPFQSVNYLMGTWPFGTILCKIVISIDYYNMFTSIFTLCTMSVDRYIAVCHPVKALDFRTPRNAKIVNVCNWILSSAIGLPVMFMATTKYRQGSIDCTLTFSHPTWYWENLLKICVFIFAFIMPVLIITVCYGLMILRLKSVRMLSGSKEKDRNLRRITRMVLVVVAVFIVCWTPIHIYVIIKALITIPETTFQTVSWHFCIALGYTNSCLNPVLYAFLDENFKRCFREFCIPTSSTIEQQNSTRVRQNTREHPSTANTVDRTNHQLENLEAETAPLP

| Structure (SMILES) | Ki |
| --- | --- |
| C[C@@H](c1ccccc1)[C@H](NC(=O)[C@H](Cc1ccccc1)NC(=O)[C@@H]1CCCN1C(=O)[C@@H](N)Cc1ccc(O)cc1)C(N)=O | 0.8 nM |
| C[C@H](c1ccccc1)[C@H](NC(=O)[C@H](Cc1ccccc1)NC(=O)[C@@H]1CCCN1C(=O)[C@@H](N)Cc1ccc(O)cc1)C(N)=O | 26.3 nM |
| C[C@@H](c1ccccc1)[C@@H](NC(=O)[C@H](Cc1ccccc1)NC(=O)[C@@H]1CCCN1C(=O)[C@@H](N)Cc1ccc(O)cc1)C(N)=O | 107 nM |

The molecules below were run against T1, Mu-type opioid receptor (assay: Inhibition of DAMGO (Tyr-[D-Ala]-Gly-[NMe-Phe]-Gly-ol) binding to rat brain mu opioid receptor).

| Structure (SMILES) | Ki |
| --- | --- |
| NC(=O)[C@H](Cc1c[nH]c2ccccc12)NC(=O)[C@H](Cc1ccccc1)NC(=O)[C@@H]1CCCN1C(=O)[C@@H](N)Cc1ccc(O)cc1 (H-YPFW-NH2) | 4.21 nM |
| NC(=O)[C@@H]1CCCN1C(=O)[C@H](Cc1ccccc1)NC(=O)[C@@H]1CCCN1C(=O)[C@@H](N)Cc1ccc(O)cc1 [MORPHICEPTIN] (H-YPFP-NH2) | 80 nM |
| Cc1cc(O)cc(C)c1C[C@H](N)C(=O)N1CCC[C@H]1C(=O)N[C@@H](Cc1ccccc1)C(=O)N[C@H](C(N)=O)[C@@H](C)c1ccccc1 | 0.35 nM |
| Cc1cc(O)cc(C)c1C[C@H](N)C(=O)N1CCC[C@H]1C(=O)N[C@@H](Cc1ccccc1)C(=O)N[C@@H](Cc1ccccc1)C(N)=O | 0.21 nM |
| Cc1cc(O)cc(C)c1C[C@H](N)C(=O)N1CCC[C@H]1C(=O)N[C@@H](Cc1ccccc1)C(=O)N[C@@H](Cc1c[nH]c2ccccc12)C(N)=O (H-[Dmt]PFW-NH2) | 0.014 nM |
| NC(=O)C(Cc1ccccc1)NC(=O)[C@H](Cc1ccccc1)NC(=O)[C@H]1Cc2ccccc2CN1C(=O)[C@@H](N)Cc1ccc(O)cc1 (single isomer, unassigned) | 167 nM |
| C[C@@H](NC(=O)[C@@H](N)Cc1ccc(O)cc1)C(=O)N[C@@H](Cc1ccccc1)C(=O)NC(Cc1ccccc1)C(N)=O (single isomer, unassigned) | 0.31 nM |

What follows are molecules tested against T1, Mu-type opioid receptor (assay: Inhibition of DAMGO (Tyr-[D-Ala]-Gly-[NMe-Phe]-Gly-ol) binding torat brain mu opioid receptor).

| Structure (SMILES) | Ki |
| --- | --- |
| C[C@H](c1ccccc1)[C@@H](NC(=O)[C@H](Cc1ccccc1)NC(=O)[C@@H]1CCCN1C(=O)[C@@H](N)Cc1ccc(O)cc1)C(N)=O | 45.3 nM |
